Results taken from patent US10875851B2, “Factor XIIa inhibitors” (Merck Sharp & Dohme Corp., priority 2016, dated 2020).

Target: human Factor XIIa (Homo sapiens (Human), UniProt P00748)
Experiment: Factor XIIa Assay
Format: biochemical
Settings: purified human Factor XIIa 500 pM; substrate n-Acetyl-Lys-Pro-Arg-AFC 100 μM; pH 7.4; read-out: FXIIa IC50
Procedure: The effectiveness of a compound of the present invention as an inhibitor of Coagulation Factor XIIa can be determined using a relevant purified serine protease, and an appropriate synthetic substrate. The rate of hydrolysis of the chromogenic or fluorogenic substrate by the relevant serine protease was measured both in the absence and presence of compounds of the present invention. Assays were conducted at room temperature or at 37° C. […] A decrease in the rate of fluorescence change in the presence of inhibitor is indicative of enzyme inhibition. Such methods are known to one skilled in the art.
Factor XIIa activity determinations were made in 50 mM HEPES buffer containing 150 mM NaCl, 5 mM CaCl2, and 0.1% PEG 8000 (polyethylene glycol; JT Baker or Fisher Scientific) at pH 7.4. Determinations were made using purified human Factor XIIa at a final concentration of 500 pM (Sekisui Diagnostics) and the synthetic substrate, n-Acetyl-Lys-Pro-Arg-AFC, TFA salt (Sigma #C6608) at a concentration of 100 μM.
Times required to achieve equilibration between enzyme and inhibitor were determined in control experiments. Initial velocities of product formation in the absence (Vo) or presence of inhibitor (Vi) were measured. IC50 was determined as the concentration of I yielding Vi=Vo/2.

human Factor XIIa, sequence (P00748 373-615): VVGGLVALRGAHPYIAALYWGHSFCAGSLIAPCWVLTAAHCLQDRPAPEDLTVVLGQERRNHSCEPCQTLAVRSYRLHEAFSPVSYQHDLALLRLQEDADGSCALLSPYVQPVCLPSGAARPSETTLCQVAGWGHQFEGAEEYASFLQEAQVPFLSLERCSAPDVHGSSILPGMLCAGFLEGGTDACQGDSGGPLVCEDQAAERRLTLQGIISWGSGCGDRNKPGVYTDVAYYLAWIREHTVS

Row | Compound | IC50 [nM]
1 | COc1cc(CNC(=O)[C@@H]2CN(C3=N[C@@H](C)[C@H](c4ccccc4)O3)CCN2C(=O)[C@@H](CCCCN2CCCCC2)NC(C)C)ccc1CN [Example 118, (2S)-N-[4-(aminomethyl)-3-methoxybenzyl]-1-[N-(1-methylethyl)-6-piperidin-1-yl-D-norleucyl]-4-[(4S,5S)-4-methyl-5-phenyl-4,5-dihydro-1,3-oxazol-2-yl]piperazine-2-carboxamide] | 8.1
2 | C[C@@H]1N=C(N2CCN(C(=O)[C@H](N)CCCCN3CCCCC3)[C@H](C(=O)NCc3cc4cnccc4s3)C2)O[C@H]1c1ccccc1 [Example 163, (2S)-4-[(4S,5S)-4-methyl-5-phenyl-4,5-dihydro-1,3-oxazol-2-yl]-1-(6-piperidin-1-yl-D-norleucyl)-N-(thieno[3,2-c]pyridin-2-ylmethyl)piperazine-2-carboxamide] | 15
3 | CN(C)CCCC[C@@H](NC1CCC2(CC1)CCN(Cc1ccccc1)C2)C(=O)N1CCN(C2=NC(C)(C)CO2)C[C@H]1C(=O)NCc1cccs1 (stereo partly drawn) [Example 141, (2S)-1-[N^2-(2-benzyl-2-azaspiro[4.5]dec-8-yl)-N^6,N^6-dimethyl-D-lysyl]-4-(4,4-dimethyl-4,5-dihydro-1,3-oxazol-2-yl)-N-(thiophen-2-ylmethyl)piperazine-2-carboxamide] | 9.2
4 | Cc1ccc(OC(=O)N2CCN(C(=O)[C@@H](CCCCN3CCCC3C)NC3CCC4(CC3)CCN(Cc3ccccc3)C4)[C@H](C(=O)NCc3cccs3)C2)c(Cl)c1C (stereo partly drawn) [Example 110, 2-chloro-3,4-dimethylphenyl (3S)-4-[N-(2-benzyl-2-azaspiro[4.5]dec-8-yl)-6-(2-methylpyrrolidin-1-yl)-D-norleucyl]-3-[(thiophen-2-ylmethyl)carbamoyl]piperazine-1-carboxylate] | 0.3
5 | CC[C@@H](C)N[C@H](CCCCN1CCCCC1)C(=O)N1CCN(C2=N[C@@H](C)[C@H](c3ccccc3)O2)C[C@H]1C(=O)NCc1cccc(Cl)c1 [Example 170, (2S)-N-(3-chlorobenzyl)-4-[(4S,5S)-4-methyl-5-phenyl-4,5-dihydro-1,3-oxazol-2-yl]-1-{N-[(1R)-1-methylpropyl]-6-piperidin-1-yl-D-norleucyl}piperazine-2-carboxamide] | 2.5
6 | COc1cc(CNC(=O)[C@@H]2CN(C3=N[C@@H](C)[C@H](c4ccccc4)O3)CCN2C(=O)[C@@H](CCCCN2CCCCC2)NC2CCC(CN)CC2)ccc1C(N)=O (stereo partly drawn) [Example 165, (2S)-1-{N-[4-(aminomethyl)cyclohexyl]-6-piperidin-1-yl-D-norleucyl}-N-(4-carbamoyl-3-methoxybenzyl)-4-[(4S,5S)-4-methyl-5-phenyl-4,5-dihydro-1,3-oxazol-2-yl]piperazine-2-carboxamide] | 41.1
7 | Cc1ccc(OC(=O)N2CCN(C(=O)[C@@H](CCCCNC(C)C)NC3CCCCC3)[C@H](C(=O)NCc3cccs3)C2)c(Cl)c1C [Example 102, 2-chloro-3,4-dimethylphenyl (3S)-4-[N^2-cyclohexyl-N^6-(1-methylethyl)-D-lysyl]-3-[(thiophen-2-ylmethyl)carbamoyl]piperazine-1-carboxylate] | 0.7
8 | O=C(NCc1cccs1)[C@@H]1CN(C(=O)Oc2cccc3c2CCNC3)CCN1C(=O)[C@@H](CC1CCCCC1)NC1CCCCC1 [Example 36, 1,2,3,4-tetrahydroisoquinolin-5-yl (3S)-4-(N,3-dicyclohexyl-D-alanyl)-3-[(thiophen-2-ylmethyl)carbamoyl]piperazine-1-carboxylate] | 4.1
9 | NCc1ccc(CNC(=O)[C@@H]2CN(C(=O)Oc3cccc4ccccc34)CCN2C(=O)[C@@H](CC2CCCCC2)NC2CCCCC2)cc1 [Example 26, naphthalen-1-yl (3S)-3-{[4-(aminomethyl)benzyl]carbamoyl}-4-(N,3-dicyclohexyl-D-alanyl)piperazine-1-carboxylate] | 8.4
10 | Cc1ccc(OC(=O)N2CCN(C(=O)[C@H](N)CCCCN(C)C)[C@H](C(=O)NCc3cccs3)C2)c(Cl)c1C [Example 98, 2-chloro-3,4-dimethylphenyl (3S)-4-(N^6,N^6-dimethyl-D-lysyl)-3-[(thiophen-2-ylmethyl)carbamoyl]piperazine-1-carboxylate] | 7.2
11 | Cc1ccc(OC(=O)N2CCN(C(=O)[C@@H](CCCCN(C)C)N(C)C3CCC4(CC3)CCN(Cc3ccccc3)C4)[C@H](C(=O)NCc3cccs3)C2)c(Cl)c1C (stereo partly drawn) [Example 100, 2-chloro-3,4-dimethylphenyl (3S)-4-[N^2-(2-benzyl-2-azaspiro[4.5]dec-8-yl)-N^2,N^6,N^6-trimethyl-D-lysyl]-3-[(thiophen-2-ylmethyl)carbamoyl]piperazine-1-carboxylate] | 0.5
12 | C[C@@H]1N=C(N2CCN(C(=O)[C@@H](CCCCN)NC3CCC4(CC3)CCN(Cc3ccccc3)C4)[C@H](C(=O)NCc3cccs3)C2)O[C@H]1c1ccccc1 (stereo partly drawn) [Example 129, (2S)-1-[N^2-(2-benzyl-2-azaspiro[4.5]dec-8-yl)-D-lysyl]-4-[(4S,5S)-4-methyl-5-phenyl-4,5-dihydro-1,3-oxazol-2-yl]-N-(thiophen-2-ylmethyl)piperazine-2-carboxamide] | 13
13 | C[C@@H]1N=C(N2CCN(C(=O)[C@H](N)CCCCN3CCCCC3)[C@H](C(=O)NCc3cccs3)C2)O[C@H]1c1ccccc1 [Example 164, (2S)-4-[(4S,5S)-4-methyl-5-phenyl-4,5-dihydro-1,3-oxazol-2-yl]-1-(6-piperidin-1-yl-D-norleucyl)-N-(thiophen-2-ylmethyl)piperazine-2-carboxamide] | 22.8
14 | CS(=O)(=O)NCCCC[C@@H](NC1CCCCC1)C(=O)N1CCN(C(=O)Oc2ccc3ccccc3c2Cl)C[C@H]1C(=O)NCc1cccs1 [Example 70, 1-chloronaphthalen-2-yl (3S)-4-[N^2-cyclohexyl-N^6-(methylsulfonyl)-D-lysyl]-3-[(thiophen-2-ylmethyl)carbamoyl]piperazine-1-carboxylate] | 20
15 | O=C(NCc1cccs1)[C@@H]1CN(C(=O)Oc2cccc3cncnc23)CCN1C(=O)[C@@H](CC1CCCCC1)NC1CCCCC1 [Example 18, quinazolin-8-yl (3S)-4-(N,3-dicyclohexyl-D-alanyl)-3-[(thiophen-2-ylmethyl)carbamoyl]piperazine-1-carboxylate] | 4.5
16 | CS(=O)(=O)N1CCC([C@@H](NC2CCCCC2)C(=O)N2CCN(C(=O)Oc3ccccc3Cl)C[C@H]2C(=O)NCc2cccs2)CC1 [Example 42, 2-chlorophenyl (3S)-4-{(2R)-2-(cyclohexylamino)-2-[1-(methylsulfonyl)piperidin-4-yl]acetyl}-3-[(thiophen-2-ylmethyl)carbamoyl]piperazine-1-carboxylate] | 6
17 | CC1(C)N=C(N2CCN(C(=O)[C@H](N)CCCCN3CCCCC3)[C@H](C(=O)NCc3cc4cnccc4s3)C2)OC1c1ccccc1 (stereo partly drawn) [Example 158, (2S)-4-(4,4-dimethyl-5-phenyl-4,5-dihydro-1,3-oxazol-2-yl)-1-(6-piperidin-1-yl-D-norleucyl)-N-(thieno[3,2-c]pyridin-2-ylmethyl)piperazine-2-carboxamide] | 54.4
18 | O=C(NCc1cccs1)[C@@H]1CN(C(=O)Oc2ccc(F)c3cccnc23)CCN1C(=O)[C@@H](CC1CCCCC1)NC1CCCCC1 [Example 32, 5-fluoroquinolin-8-yl (3S)-4-(N,3-dicyclohexyl-D-alanyl)-3-[(thiophen-2-ylmethyl)carbamoyl]piperazine-1-carboxylate] | 5.2
19 | C[C@@H]1N=C(N2CCN(C(=O)[C@@H](CCCCN3CCCCC3)NC3CCC(CN)CC3)[C@H](C(=O)NCc3cc4cnccc4s3)C2)O[C@H]1c1ccccc1 (stereo partly drawn) [Example 174, (2S)-1-{N-[4-(aminomethyl)cyclohexyl]-6-piperidin-1-yl-D-norleucyl}-4-[(4S,5S)-4-methyl-5-phenyl-4,5-dihydro-1,3-oxazol-2-yl]-N-(thieno[3,2-c]pyridin-2-ylmethyl)piperazine-2-carboxamide] | 3
20 | COc1cc(CNC(=O)[C@@H]2CN(C(=O)Oc3ccccc3Cl)CCN2C(=O)[C@@H](CCCCNS(C)(=O)=O)NC2CCC3(CC2)CCN(Cc2ccccc2)C3)ccc1CN (stereo partly drawn) [Example 85, 2-chlorophenyl (3S)-3-{[4-(aminomethyl)-3-methoxybenzyl]carbamoyl}-4-[N^2-(2-benzyl-2-azaspiro[4.5]dec-8-yl)-N^6-(methylsulfonyl)-D-lysyl]piperazine-1-carboxylate] | 8.3
21 | COc1cc(CNC(=O)[C@@H]2CN(C(=O)Oc3ccc4ccccc4c3Cl)CCN2C(=O)[C@@H](CC2CCCCC2)NC2CCCCC2)ccc1CN [Example 44, 1-chloronaphthalen-2-yl (3S)-3-{[4-(aminomethyl)-3-methoxybenzyl]carbamoyl}-4-(N,3-dicyclohexyl-D-alanyl)piperazine-1-carboxylate] | 2.7
22 | C[C@H]1N=C(N2CCN(C(=O)[C@@H](CCCCNS(C)(=O)=O)NC3CCCCC3)[C@H](C(=O)NCc3cccs3)C2)O[C@H]1c1ccccc1 [Example 122, (2S)-1-[N^2-cyclohexyl-N^6-(methylsulfonyl)-D-lysyl]-4-[(4R,5S)-4-methyl-5-phenyl-4,5-dihydro-1,3-oxazol-2-yl]-N-(thiophen-2-ylmethyl)piperazine-2-carboxamide] | 13.5
